Laboratory results published in ChEMBL document CHEMBL3045994, “Design, synthesis, and anticonvulsant evaluation of some novel 1, 3 benzothiazol-2-yl hydrazones/acetohydrazones” (Med Chem Res, 2012).

Legend:
[1] = Octanol-phosphate buffer partition coefficient, log P of the compound after 24 hr; format: physicochemical
[2] = system: Mus musculus; assay: Neurotoxicity in Mus musculus albino CF1 (mouse) assessed as motor impairment at 300 mg/kg, ip up to 4 hr; format: toxicity, organism-based; set-up: dose 300 mg/kg, route intraperitoneal; conditions: in vivo
[3] = system: Mus musculus; assay: Neurotoxicity in Mus musculus albino CF1 (mouse) assessed as motor impairment at 100 mg/kg, ip after 4 hr; format: toxicity, organism-based; set-up: dose 100 mg/kg, route intraperitoneal; conditions: in vivo
[4] = system: Mus musculus; assay: Neurotoxicity in Mus musculus albino CF1 (mouse) assessed as motor impairment at 100 mg/kg, ip after 2 hr; format: toxicity, organism-based; set-up: dose 100 mg/kg, route intraperitoneal; conditions: in vivo
[5] = system: Mus musculus; assay: Neurotoxicity in Mus musculus albino CF1 (mouse) assessed as motor impairment at 100 mg/kg, ip after 1 hr; format: toxicity, organism-based; set-up: dose 100 mg/kg, route intraperitoneal; conditions: in vivo
[6] = system: Mus musculus; assay: Neurotoxicity in Mus musculus albino CF1 (mouse) assessed as motor impairment at 100 mg/kg, ip after 0.5 hr; format: toxicity, organism-based; set-up: dose 100 mg/kg, route intraperitoneal; conditions: in vivo
[7] = system: Mus musculus; assay: Neurotoxicity in Mus musculus albino CF1 (mouse) assessed as motor impairment at 100 mg/kg, ip after 0.25 hr; format: toxicity, organism-based; set-up: dose 100 mg/kg, route intraperitoneal; conditions: in vivo
[8] = system: Mus musculus; assay: Anticonvulsant activity in Mus musculus albino CF1 (mouse) assessed as protection against 6 Hz psychomotor seizure at 100 mg/kg, ip after 4 hr; format: functional; conditions: route intraperitoneal
[9] = system: Mus musculus; assay: Anticonvulsant activity in Mus musculus albino CF1 (mouse) assessed as protection against 6 Hz psychomotor seizure at 100 mg/kg, ip after 2 hr; format: functional; conditions: route intraperitoneal
[10] = system: Mus musculus; assay: Anticonvulsant activity in Mus musculus albino CF1 (mouse) assessed as protection against 6 Hz psychomotor seizure at 100 mg/kg, ip after 1 hr; format: functional; conditions: route intraperitoneal
[11] = system: Mus musculus; assay: Anticonvulsant activity in Mus musculus albino CF1 (mouse) assessed as protection against 6 Hz psychomotor seizure at 100 mg/kg, ip after 0.5 hr; format: functional; conditions: route intraperitoneal
[12] = system: Mus musculus; assay: Anticonvulsant activity in Mus musculus albino CF1 (mouse) assessed as protection against 6 Hz psychomotor seizure at 100 mg/kg, ip after 0.25 hr; format: functional; conditions: route intraperitoneal

SMILES: O=C(CSc1nc2ccccc2s1)N/N=C/c1ccc(Oc2ccc(F)cc2)cc1
- logP at 24 h [1]: 5.5
- Activity [2]: Non-toxic
- Activity [3]: Non-toxic
- Activity [4]: Non-toxic
- Activity [5]: Non-toxic
- Activity [6]: Non-toxic
- Activity [7]: Non-toxic
- Activity [8]: 0%
- Activity [9]: 0%
- Activity [10]: 0%
- Activity [11]: 25%
- Activity [12]: 50%

SMILES: O=C(CSc1nc2ccccc2s1)N/N=C/c1ccc(Oc2ccc3c(c2)OCO3)cc1
- logP at 24 h [1]: 5.5
- Activity [2]: Non-toxic

SMILES: Cc1ccc(Oc2ccc(/C=N/NC(=O)CSc3nc4ccccc4s3)cc2)cc1
- logP at 24 h [1]: 5.7
- Activity [2]: Non-toxic

SMILES: O=[N+]([O-])c1ccc(Oc2ccc(/C=N/Nc3nc4ccccc4s3)cc2)cc1
- logP at 24 h [1]: 5.1
- Activity [2]: Non-toxic
- Activity [3]: Non-toxic
- Activity [4]: Non-toxic
- Activity [5]: Non-toxic
- Activity [6]: Non-toxic
- Activity [7]: Non-toxic
- Activity [8]: 0%
- Activity [9]: 0%
- Activity [10]: 50%
- Activity [11]: 25%
- Activity [12]: 50%

SMILES: Cc1cc(Oc2ccc(/C=N/NC(=O)CSc3nc4ccccc4s3)cc2)ccc1Cl
- logP at 24 h [1]: 5.7
- Activity [2]: Non-toxic
- Activity [3]: Non-toxic
- Activity [4]: Non-toxic
- Activity [5]: Non-toxic
- Activity [6]: Non-toxic
- Activity [7]: Non-toxic
- Activity [8]: 0%
- Activity [9]: 0%
- Activity [10]: 25%
- Activity [11]: 25%
- Activity [12]: 0%

SMILES: O=C(CSc1nc2ccccc2s1)N/N=C/c1ccc(Oc2ccc3ccccc3c2)cc1
- logP at 24 h [1]: 5.9
- Activity [2]: Non-toxic
- Activity [3]: Non-toxic
- Activity [4]: Non-toxic
- Activity [5]: Non-toxic
- Activity [6]: Non-toxic
- Activity [7]: Non-toxic
- Activity [8]: 0%
- Activity [9]: 0%
- Activity [10]: 0%
- Activity [11]: 25%
- Activity [12]: 0%

SMILES: Cc1ccc(Oc2ccc(/C=N/Nc3nc4ccccc4s3)cc2)cc1
- logP at 24 h [1]: 5.4
- Activity [2]: Non-toxic
- Activity [3]: Non-toxic
- Activity [4]: Non-toxic
- Activity [5]: Non-toxic
- Activity [6]: Non-toxic
- Activity [7]: Non-toxic
- Activity [8]: 0%
- Activity [9]: 0%
- Activity [10]: 0%
- Activity [11]: 25%
- Activity [12]: 25%

SMILES: C(=N\Nc1nc2ccccc2s1)/c1ccc(Oc2ccccc2)cc1
- logP at 24 h [1]: 5.2
- Activity [2]: Non-toxic
- Activity [3]: Non-toxic
- Activity [4]: Non-toxic
- Activity [5]: Non-toxic
- Activity [6]: Non-toxic
- Activity [7]: Non-toxic
- Activity [8]: 0%
- Activity [9]: 50%
- Activity [10]: 0%
- Activity [11]: 25%
- Activity [12]: 0%

SMILES: O=C(CSc1nc2ccccc2s1)N/N=C/c1ccc(Oc2ccc(Br)cc2)cc1
- logP at 24 h [1]: 5.7
- Activity [2]: Non-toxic
- Activity [3]: Non-toxic
- Activity [4]: Non-toxic
- Activity [5]: Non-toxic
- Activity [6]: Non-toxic
- Activity [7]: Non-toxic
- Activity [8]: 0%
- Activity [9]: 0%
- Activity [10]: 75%
- Activity [11]: 50%
- Activity [12]: 0%

SMILES: O=C(CSc1nc2ccccc2s1)N/N=C1\C(=O)Nc2ccccc21
- logP at 24 h [1]: 3.2
- Activity [2]: Non-toxic
- Activity [3]: Non-toxic
- Activity [4]: Non-toxic
- Activity [5]: Non-toxic
- Activity [6]: Non-toxic
- Activity [7]: Non-toxic
- Activity [8]: 0%
- Activity [9]: 0%
- Activity [10]: 0%
- Activity [11]: 75%
- Activity [12]: 0%

SMILES: O=C1Nc2ccccc2/C1=N/Nc1nc2ccccc2s1
- logP at 24 h [1]: 3.2
- Activity [2]: Non-toxic
- Activity [3]: Non-toxic
- Activity [4]: Non-toxic
- Activity [5]: Non-toxic
- Activity [6]: Non-toxic
- Activity [7]: Non-toxic
- Activity [8]: 0%
- Activity [9]: 25%
- Activity [10]: 25%
- Activity [11]: 0%
- Activity [12]: 0%

SMILES: O=C(CSc1nc2ccccc2s1)N/N=C/c1ccc(Oc2ccccc2)cc1
- logP at 24 h [1]: 5.6
- Activity [2]: Non-toxic
- Activity [3]: Non-toxic
- Activity [4]: Non-toxic
- Activity [5]: Non-toxic
- Activity [6]: Non-toxic
- Activity [7]: Non-toxic
- Activity [8]: 0%
- Activity [9]: 0%
- Activity [10]: 50%
- Activity [11]: 25%
- Activity [12]: 50%

SMILES: Clc1ccc(Oc2ccc(/C=N/Nc3nc4ccccc4s3)cc2)cc1
- logP at 24 h [1]: 5.6
- Activity [2]: Non-toxic
- Activity [3]: Non-toxic
- Activity [4]: Non-toxic
- Activity [5]: Non-toxic
- Activity [6]: Non-toxic
- Activity [7]: Non-toxic
- Activity [8]: 0%
- Activity [9]: 25%
- Activity [10]: 0%
- Activity [11]: 50%
- Activity [12]: 0%

SMILES: C(=N\Nc1nc2ccccc2s1)/c1ccc(Oc2ccc3ccccc3c2)cc1
- logP at 24 h [1]: 5.6
- Activity [2]: Non-toxic
- Activity [3]: Non-toxic
- Activity [4]: Non-toxic
- Activity [5]: Non-toxic
- Activity [6]: Non-toxic
- Activity [7]: Non-toxic
- Activity [8]: 0%
- Activity [9]: 50%
- Activity [10]: 25%
- Activity [11]: 0%
- Activity [12]: 25%

SMILES: Cc1cc(Oc2ccc(/C=N/Nc3nc4ccccc4s3)cc2)ccc1Cl
- logP at 24 h [1]: 5.5
- Activity [2]: Non-toxic
- Activity [3]: Non-toxic
- Activity [4]: Non-toxic
- Activity [5]: Non-toxic
- Activity [6]: Non-toxic
- Activity [7]: Non-toxic
- Activity [8]: 0%
- Activity [9]: 0%
- Activity [10]: 0%
- Activity [11]: 0%
- Activity [12]: 25%

SMILES: O=C(CSc1nc2ccccc2s1)N/N=C/c1ccc(Oc2ccc(Cl)cc2)cc1
- logP at 24 h [1]: 5.6
- Activity [2]: Non-toxic
- Activity [3]: Non-toxic
- Activity [4]: Non-toxic
- Activity [5]: Non-toxic
- Activity [6]: Non-toxic
- Activity [7]: Non-toxic
- Activity [8]: 0%
- Activity [9]: 25%
- Activity [10]: 75%
- Activity [11]: 0%
- Activity [12]: 0%

SMILES: O=C(CSc1nc2ccccc2s1)N/N=C/c1ccc(Oc2ccc([N+](=O)[O-])cc2)cc1
- logP at 24 h [1]: 5.3
- Activity [2]: Non-toxic
- Activity [3]: Non-toxic
- Activity [4]: Non-toxic
- Activity [5]: Non-toxic
- Activity [6]: Non-toxic
- Activity [7]: Non-toxic
- Activity [8]: 0%
- Activity [9]: 0%
- Activity [10]: 25%
- Activity [11]: 0%
- Activity [12]: 0%

SMILES: Fc1ccc(Oc2ccc(/C=N/Nc3nc4ccccc4s3)cc2)cc1
- logP at 24 h [1]: 5
- Activity [2]: Non-toxic

SMILES: C(=N\Nc1nc2ccccc2s1)/c1ccc(Oc2ccc3c(c2)OCO3)cc1
- logP at 24 h [1]: 5
- Activity [2]: Non-toxic
- Activity [3]: Non-toxic
- Activity [4]: Non-toxic
- Activity [5]: Non-toxic
- Activity [6]: Non-toxic
- Activity [7]: Non-toxic
- Activity [8]: 0%
- Activity [9]: 0%
- Activity [10]: 0%
- Activity [11]: 25%
- Activity [12]: 0%

SMILES: Brc1ccc(Oc2ccc(/C=N/Nc3nc4ccccc4s3)cc2)cc1
- logP at 24 h [1]: 5.5
- Activity [2]: Non-toxic
- Activity [3]: Non-toxic
- Activity [4]: Non-toxic
- Activity [5]: Non-toxic
- Activity [6]: Non-toxic
- Activity [7]: Non-toxic
- Activity [8]: 0%
- Activity [9]: 50%
- Activity [10]: 25%
- Activity [11]: 50%
- Activity [12]: 0%
